Test results reported in patent publication US20090023718A1 (Aton Pharma, Inc., priority 2003, published 2009).
Read-outs that look alike come from different tables or passages of the source.

Biological target: T1, histone deacetylase, subtype 1 (HDAC1) (Homo sapiens, UniProt Q13547)
T1 construct: Flag; made in house
Assay: HDAC1-Flag assay (in vitro fluorescent deacetylation assay)
Assay type: biochemical
Conditions: epitope-tagged human HDAC1 complex, substrate at Km, mean ± spread (N), read-out: HDAC Inhibition (IC50) nm
Description: Novel compounds were tested for their ability to inhibit histone deacetylase, subtype 1 (HDAC1) using an in vitro deacetylation assay. The enzyme source for this assay was an epitope-tagged human HDAC1 complex immuno-purified from stably expressing mammalian cells. The substrate consisted of a commercial product containing an acetylated lysine side chain (BIOMOL Research Laboratories, Inc., Plymouth Meeting, Pa.). Upon deacetylation of the substrate by incubation with the purified HDAC1 complex, a fluorophore is produced that is directly proportional to the level of deacetylation.

[1] = Table 3, compounds of formula IV
[2] = Table 1, compounds of formula II
[3] = Table 2, compounds of formula III
[4] = Table 4, compounds of formula V
[5] = Table 5, other HDAC inhibitors of formula I

T1 sequence (Q13547 whole entry): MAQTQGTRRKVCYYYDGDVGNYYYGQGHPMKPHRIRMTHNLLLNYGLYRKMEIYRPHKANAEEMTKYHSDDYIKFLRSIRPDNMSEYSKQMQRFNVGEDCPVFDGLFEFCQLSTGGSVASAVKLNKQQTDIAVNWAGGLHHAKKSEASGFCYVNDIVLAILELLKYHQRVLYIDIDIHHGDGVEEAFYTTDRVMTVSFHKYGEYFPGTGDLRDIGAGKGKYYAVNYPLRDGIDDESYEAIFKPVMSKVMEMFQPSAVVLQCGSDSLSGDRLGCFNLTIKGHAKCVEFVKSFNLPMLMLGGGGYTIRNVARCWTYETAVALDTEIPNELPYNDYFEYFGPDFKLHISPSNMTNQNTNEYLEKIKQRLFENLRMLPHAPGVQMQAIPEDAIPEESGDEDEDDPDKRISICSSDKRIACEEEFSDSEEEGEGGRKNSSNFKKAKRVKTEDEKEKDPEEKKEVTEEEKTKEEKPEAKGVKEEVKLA

| Molecule | IC50 [1] | IC50 [2] | further results |
| --- | --- | --- | --- |
| O=C(CCCC(=O)N1CCN(c2ccc(Cl)cc2)CC1)NO [Compound 73, 5-[4-(4-Chloro-phenyl)-piperazin-1-yl]-5-oxo-pentanoic acid hydroxyamide] | 988 ± 93.3 nM | – | – |
| Cn1c(NC(=O)CN(CC(=O)Nc2nc3ccccc3n2C)C(=O)CCCCCC(=O)NO)nc2ccccc21 [Compound 38, Heptanedioic acid bis-[(1-methyl-1H-benzoimidazol-2-ylcarbamoyl)-methyl]-amide hydroxyamide] | – | 84 ± 8.4 nM | – |
| CC(=O)c1ccc(N2CCN(C(=O)CCC(=O)NO)CC2)cc1 [Compound 70] | 24000 nM | – | – |
| O=C(CCCCCCC(=O)N1CCN(C(=O)OCc2ccccc2)CC1)NO [Compound 65] | 301 ± 21.2 nM | – | – |
| O=C(CCCCCCCN(CC(=O)NCCc1ccccc1)CC(=O)NCCc1ccccc1)NO [Compound 49, 8-[Bis-(phenethylcarbamoyl-methyl)-amino]-octanoic acid hydroxyamide] | – | – | IC50 [3]: 191 ± 20.5 nM |
| O=C(CCCCCCC(=O)N(CC(=O)Nc1ccc(OCc2ccccc2)cc1)CC(=O)Nc1ccc(OCc2ccccc2)cc1)NO [Compound 22, Octanedioic acid bis-[(4-benzyloxy-phenylcarbamoyl)-methyl]-amide hydroxyamide] | – | 848 ± 481 nM | – |
| O=C(CCCCCCC(=O)N(CC(=O)NCc1ccccc1)CC(=O)NCc1ccccc1)NO [Compound 20, Octanedioic acid bis-(benzylcarbamoyl-methyl)-amide hydroxyamide] | – | 247 ± 99.9 nM | – |
| O=C(CCCCC(=O)N(Cc1ccccc1)Cc1ccccc1)NO [Compound 58] | 899 ± 243 nM | – | – |
| O=C(CCCCCC(=O)N(CC(=O)NCc1ccccc1)CC(=O)Nc1ccccc1)NO [Compound 10, Heptanedioic acid (benzylcarbamoyl-methyl)-phenylcarbamoylmethyl-amide hydroxyamide] | – | 27.5 ± 10.6 nM | – |
| O=C(CCCCCCCCC(=O)N(CCc1ccccc1)Cc1ccccc1)NO [Compound 64] | 434 ± 2.8 nM | – | – |
| O=C(CCCCCCN(Cc1ccccc1)Cc1ccccc1)NO [Compound 80] | – | – | IC50 [4]: 374 ± 39.5 nM |
| 8-[4-(4-Chloro-phenyl)-piperazin-1-yl]-8-oxo-octanoic acid hydroxyamide [Compound 78] | 36.5 ± 4.9 nM | – | – |
| O=C(CCCCCCN(CCc1c[nH]c2ccccc12)Cc1ccc(Br)cc1)NO [Compound 82] | – | – | IC50 [4]: 188 ± 72.8 nM |
| 6-{Bis-[2-(3,4-dihydro-1H-isoquinolin-2-yl)-2-oxo-ethyl]-amino}-hexanoic acid hydroxyamide [Compound 46] | – | – | IC50 [3]: 153 ± 29.6 nM |
| O=C(CCCCCN(CC(=O)N1CCN(c2ccccc2)CC1)CC(=O)N1CCN(c2ccccc2)CC1)NO [Compound 45, 6-{Bis-[2-oxo-2-(4-phenyl-piperazin-1-yl)-ethyl]-amino}-hexanoic acid hydroxyamide] | – | – | IC50 [3]: 140 ± 16.2 nM |
| O=C(CCCCCCCCC(=O)N1CCN(c2ccc(Cl)cc2)CC1)NO [Compound 79, 10-[4-(4-Chloro-phenyl)-piperazin-1-yl]-10-oxo-decanoic acid hydroxyamide] | 169 ± 30.4 nM | – | – |
| O=C(CCCCCCC(=O)N1CCN(c2cccc(Cl)c2)CC1)NO [Compound 77, 8-[4-(3-Chloro-phenyl)-piperazin-1-yl]-8-oxo-octanoic acid hydroxyamide] | 39 ± 2.8 nM | – | – |
| O=C(CCCCC(=O)N1CCN(c2ccc(Cl)cc2)CC1)NO [Compound 76, 6-[4-(4-Chloro-phenyl)-piperazin-1-yl]-6-oxo-hexanoic acid hydroxyamide] | 475 ± 9.1 nM | – | – |
| O=C(CCCCCCC(=O)N(CC(=O)NC1CCCCC1)CC(=O)NC1CCCCC1)NO [Compound 21, Octanedioic acid bis-cyclohexylcarbamoylmethyl-amide hydroxyamide] | – | 539 ± 97 nM | – |

| Molecule | IC50 [1] | IC50 [2] | further results |
| --- | --- | --- | --- |
| O=C(CCCCCCC(=O)N(CCc1ccccc1)Cc1ccccc1)NO [Compound 63] | 591 ± 46.6 nM | – | – |
| O=C(CCCCN(CC(=O)NCc1ccccc1)CC(=O)NCc1ccccc1)NO [Compound 55, 5-[Bis-(benzylcarbamoyl-methyl)-amino]-pentanoic acid hydroxyamide] | – | – | IC50 [3]: 907 ± 60.8 nM |
| O=C(CCCCCC(=O)N(CC(=O)Nc1ccc2[nH]ncc2c1)CC(=O)Nc1ccc2[nH]ncc2c1)NO [Compound 1, Heptanedioic acid bis-[(1H-indazol-5-ylcarbamoyl)-methyl]-amide hydroxyamide] | – | 1 nM | – |
| O=C(CCCCCC(=O)N(CCc1c[nH]c2ccccc12)Cc1ccc(Br)cc1)NO [Compound 61] | 162 ± 88.3 nM | – | – |
| O=C(CCCCCCCN(CC(=O)Nc1ccccc1)CC(=O)Nc1ccccc1)NO [Compound 43, 8-(Bis-phenylcarbamoylmethyl-amino)-octanoic acid hydroxyamide] | – | – | IC50 [3]: 86.5 ± 26.1 nM |
| O=C(CCCCCC(=O)N(CC(=O)Nc1ccc2c(c1)Cc1ccccc1-2)CC(=O)Nc1ccc2c(c1)Cc1ccccc1-2)NO [Compound 31, Heptanedioic acid bis-[(9H-fluoren-2-ylcarbamoyl)-methyl]-amide hydroxyamide] | – | 59 ± 18.3 nM | – |
| O=C(CCCCC(=O)N1CCN(c2ccccc2)CC1)NO [Compound 74, 6-Oxo-6-(4-phenyl-piperazin-1-yl)-hexanoic acid hydroxyamide] | 1350 ± 106 nM | – | – |
| O=C(CCCCCC(=O)N(CC(=O)Nc1ccc2ncccc2c1)CC(=O)Nc1ccc2ncccc2c1)NO [Compound 2, Heptanedioic acid bis-(quinolin-ylcarbamoylmethyl)-amide hydroxyamide] | – | 5.5 ± 0.7 nM | – |
| O=C(CCCCCCCN(CCc1c[nH]c2ccccc12)Cc1ccc(Br)cc1)NO [Compound 83] | – | – | IC50 [4]: 204 ± 58.6 nM |
| O=C(CCCCCCC(=O)N(CCc1c[nH]c2ccccc12)Cc1ccc(Br)cc1)NO [Compound 60] | 387 ± 80.6 nM | – | – |
| O=C(CCCCCN(CC(=O)NC1CCCCC1)CC(=O)NC1CCCCC1)NO [Compound 50, 6-(Bis-cyclohexylcarbamoylmethyl-amino)-hexanoic acid hydroxyamide] | – | – | IC50 [3]: 267 ± 32.5 nM |
| O=C(CCCCCCC(=O)N(CC(=O)Nc1ccc2ncccc2c1)CC(=O)Nc1ccc2ncccc2c1)NO [Compound 17, Octanedioic acid bis-(quinolin-6-ylcarbamoylmethyl)-amide hydroxyamide] | – | 102 ± 33.2 nM | – |
| O=C(CCCCCC(=O)N(CC(=O)NCc1ccccc1)CC(=O)NCc1ccccc1)NO [Compound 13, Heptanedioic acid bis-(benzylcarbamoyl-methyl)-amide hydroxyamide] | – | 61.5 ± 6.3 nM | – |
| CN(CCCCCC(=O)NO)CC(=O)NCc1ccccc1 [Compound 85] | – | – | IC50 [5]: 571 ± 52.3 nM |
| O=C(CCCCCN(CC(=O)NCc1ccccc1)CC(=O)NCc1ccccc1)NO [Compound 48, 6-[Bis-(benzylcarbamoyl-methyl)-amino]-hexanoic acid hydroxyamide] | – | – | IC50 [3]: 187 ± 10.6 nM |
| O=C(CCCCN(CC(=O)NCCc1ccccc1)CC(=O)NCCc1ccccc1)NO [Compound 54, 5-[Bis-(phenethylcarbamoyl-methyl)-amino]-pentanoic acid hydroxyamide] | – | – | IC50 [3]: 886 ± 20.5 nM |
| CN(CCCCCC(=O)NO)CC(=O)NCCc1ccccc1 [Compound 86] | – | – | IC50 [5]: 247 ± 33.2 nM |
| O=C(CCCCCC(=O)N(CC(=O)NCCc1c[nH]c2ccccc12)CC(=O)NCCc1c[nH]c2ccccc12)NO [Compound 33, Heptanedioic acid bis-{[2-(1H-indol-3-yl)-ethylcarbamoyl]-methyl}-amide hydroxyamide] | – | 39.5 ± 37.4 nM | – |

Further lines, with some results ahead:

| IC50 [1] | IC50 [2] | Molecule | further results |
| --- | --- | --- | --- |
| 2590 ± 807 nM | – | O=C(CCCCC(=O)N(CCc1ccccc1)Cc1ccccc1)NO [Compound 59] | – |
| – | 33 ± 12.7 nM | Cc1ccc(S(=O)(=O)Nc2ccc(NC(=O)CN(CC(=O)Nc3ccc(NS(=O)(=O)c4ccc(C)cc4)cc3)C(=O)CCCCCC(=O)NO)cc2)cc1 [Compound 28, Heptanedioic acid bis{[4-(toluene-4-sulfonylamino)-phenylcarbamoyl]-methyl}-amide hydroxyamide] | – |
| – | 231 ± 65.5 nM | O=C(CCCCCCC(=O)N(CC(=O)NCCc1ccccc1)CC(=O)NCCc1ccccc1)NO [Compound 19, Octanedioic acid bis-(phenethylcarbamoyl-methyl)-amide hydroxyamide] | – |
| – | 449 ± 40.3 nM | O=C(CCCCCC(=O)N(CC(=O)Nc1ccccc1Oc1ccccc1)CC(=O)Nc1ccccc1Oc1ccccc1)NO [Compound 26, Heptanedioic acid bis-[(2-phenoxy-phenylcarbamoyl)-methyl]-amide hydroxyamide] | – |
| 1220 ± 31.1 nM | – | O=C(CCCC(=O)N1CCN(c2ccccc2)CC1)NO [Compound 71, 5-Oxo-5-(4-phenyl-piperazin-1-yl)-pentanoic acid hydroxyamide] | – |
| – | 76 ± 14.1 nM | O=C(CCCCCC(=O)N(CC(=O)NC1CCCCC1)CC(=O)NC1CCCCC1)NO [Compound 14, Heptanedioic acid bis-cyclohexylcarbamoylmethyl-amide hydroxyamide] | – |
| 621 ± 94 nM | – | O=C(CCCCC(=O)N1CCN(c2cccc(Cl)c2)CC1)NO [Compound 75, 6-[4-(3-Chloro-phenyl)-piperazin-1-yl]-6-oxo-hexanoic acid hydroxyamide] | – |
| 462 ± 51.6 nM | – | O=C(CCCCCCC(=O)N(Cc1ccccc1)Cc1ccccc1)NO [Compound 62] | – |
| 13000 nM | – | O=C(CCC(=O)N1CCN(c2cccc(Cl)c2)CC1)NO [Compound 69] | – |
| – | 19 nM | O=C(CCCCCC(=O)N(CC(=O)Nc1ccc2c(c1)OCCO2)CC(=O)Nc1ccc2c(c1)OCCO2)NO [Compound 5, Heptanedioic acid bis-[(2,3-dihydro-benzo[1,4]dioxin-6-ylcarbamoyl)-methyl]-amide hydroxyamide] | – |
